The subject of assay [1] is U2OS/PD-L1 cells and Jurkat-PD-1-SHP cells. The experiment in a line: Src homology region 2 domain-containing phosphatase (SHP) assay. Type of assay: cell-based. To be noted: Homo sapiens, U2OS; PathHunter chemiluminescence, 2 hours. Here is the method:
U2OS/PD-L1 cells (DiscoveRx Corporation) were maintained in McCoy's 5A medium with addition of 10% FBS, 0.25 μg/mL Puromycin. After removing the culture media, the cell medium was replaced with assay medium (RPMI1640 medium with 1% FBS). The U2OS/PD-L1 cells were then added in 384-well black clear bottom assay plate (CELLCOAT® Tissue Culture Plates, Greiner Bio-One) at 5000 cells per well in 20 μL assay medium. Test compounds were prepared by serial dilution in DMSO and 125 nL compound were first transferred to the 384 REMP plate well (Thermofisher) by ECHO liquid handler (Labcyte) followed with addition of 27.5 μL assay medium. 5 µL/well compounds in the assay medium were transferred to the cell plate with 0.05% DMSO in the final assay at 0.25 μM. Jurkat-PD-1-SHP cells (DiscoveRx Corporation) were cultured in RPMI1640 medium supplemented with 10% FBS, 250 μg/mL Hygromycin B, 500 μg/mL G418. After the replacement of culture media with assay medium, 5,000 Jurkat-PD-1-SHP cells in 20 μL were dispensed into each well. The assay plate was incubated at 37° C., 5% CO2 for 2 hours before 2.5 μL PathHunter reagent 1 (DiscoveRx Corporation) were added to each well. The assay plate was shaken for 1 min at 350 rpm in the dark followed with addition of 10 μL PathHunter reagent 2 (DiscoveRx Corporation). Chemiluminescent signal was recorded with TopCount reader (Perkin Elmer) after incubation at room temperature for 1 hour. Wells with DMSO were served as the positive controls and wells containing no cells were used as negative controls. IC50 determination was performed by fitting the curve of percentage of control activity versus the log of the compound concentration using the GraphPad Prism 6.0 software.

Another assay deals with PD-L1 (Homo sapiens (Human), UniProt Q9NZQ7). Briefly: PD-L1 whole blood internalization assay. To be noted: PD-L1 internalization in human whole blood, CD14+ cells, interferon γ, 24 hour. It is filed as cell-based. Here is the method:
To determine PD-L1 internalization in human whole blood, normal human blood (Biological Specialty Corp, Colmar. Pa.) was incubated in the presence or absence of a concentration range of test compounds and 1 ng/mL human interferon γ (R&D Systems Inc. Minn. […] Blood was then stained with PD-L1 (MIH1, eBioscience; or BD Biosciences San Jose, Calif.), CD14 (Life Technologies, Carlsbad, Calif.) for 30 minutes in the dark at room temperature. Whole Blood/red cells were lysed/fixed (lysis buffer BD Biosciences) for 5 minutes at 37° C. in the dark and then centrifuged at 1600 RPM for 5 minutes. Cells were resuspended in Stain Buffer (BD Bioscience, San Jose, Calif.) and transferred into 96 well round bottom plates (Corning). Cells were gated on CD14+(BD Biosciences) and PD-L1 expression determined by mean fluorescence intensity (MFI) (BD LSRFortessa™ X-20). IC50 determination was performed by fitting the curve of compound percent inhibition versus the log of the compound concentration using the GraphPad Prism 7.0 software.

Assay [2] concerns PD-L1 aAPC/CHO-K1 cells and Jurkat-PD-1-NFAT effector cells. Briefly: Nuclear factor of activated T-cells (NFAT) assay. To be noted: Cricetulus griseus, CHO-K1; luminescence, 24 hours. Type of assay: cell-based. As for the experimental part:
PD-L1 aAPC/CHO-Klcells (Promega) were maintained in F-12 medium with addition of 10% FBS, 200 μg/mL Hygromycin B, 250 μg/mL Geneticin (G418). Jurkat-PD-1-NFAT effector cells (Promega) were cultured in RPMI 1640 medium supplemented with 10% FBS, 100 μg/mL Hygromycin B, 500 μg/mL G418. The culture media of PD-L1 aAPC/CHO-K1 cells were first replaced with assay medium (RPMI1640 medium with 1% FBS). The PD-L1 aAPC/CHO-Klcells were then added in a white 384-well white clear bottom assay plate (CELLCOAT® Tissue Culture Plates, Greiner Bio-One) at 8000 per well in 10 μL assay medium. Test compounds were prepared by serial dilution in DMSO and 0.8 μL test compounds in DMSO were first transferred to the 384 REMP plate well (Thermofisher) by PlateMate Plus (Thermofisher) followed with addition of 50 μL plating medium. 5 μL compounds in the assay medium were transferred to the cells with 0.4% DMSO in the final assay at 2 μM. After removing the culture media, 10,000 Jurkat-PD-1-NFAT effector cells in 5 μL assay medium was dispensed into each well. The assay plate was incubated at 37° C., 5% CO2 for 24 hours. After the assay plate was equilibrated to room temp for 15 minutes, 20 μL/well of Bio-Glo™ reagent (Promega) were added. After 8 minutes incubation at room temperature, luminescence was read at with Pherastar microplate reader (BMG Labtech). The fold of induction (FOI) was calculated based on the ratio of luminescence normalized to the DMSO wells within each assay plate. The maximum percentage of induction was reported based on the ratio between the highest FOI of each compound and the maximum FOI of control compound within each assay plate. Wells with DMSO were served as the negative controls and wells containing control compound with the highest FOI were used as positive controls. EC50 determination was performed by fitting the curve of percent control activity versus the log of the compound concentration using the GraphPad Prism 6.0 software.

Another assay addresses PD-1/PD-L1 (Homo sapiens (Human), UniProt Q9NZQ7). Briefly: Homogeneous Time-Resolved Fluorescence (HTRF) PD-1/PD-L1 binding assay. As to conditions: recombinant human PD-1 and PD-L1. As for the experimental part:
The assays were conducted in a standard black 384-well polystyrene plate with a final volume of 20 μL. Inhibitors were first serially diluted in DMSO and then added to the plate wells before the addition of other reaction components. The final concentration of DMSO in the assay was 1%. The assays were carried out at 25° C. in the PBS buffer (pH 7.4) with 0.05% Tween-20 and 0.1% BSA. Recombinant human PD-L1 protein (19-238) with a His-tag at the C-terminus was purchased from AcroBiosystems (PD1-H5229). Recombinant human PD-1 protein (25-167) with Fc tag at the C-terminus was also purchased from AcroBiosystems (PD1-H5257). PD-L1 and PD-1 proteins were diluted in the assay buffer and 10 μL was added to the plate well. Plates were centrifuged and proteins were preincubated with inhibitors for 40 minutes. The incubation was followed by the addition of 10 μL of HTRF detection buffer supplemented with Europium cryptate-labeled anti-human IgG (PerkinElmer-AD0212) specific for Fc and anti-His antibody conjugated to SureLight®-Allophycocyanin (APC, PerkinElmer-AD0059H). After centrifugation, the plate was incubated at 25° C. for 60 min. before reading on a PHERAstar FS plate reader (665 nm/620 nm ratio). Final concentrations in the assay were—3 nM PD1, 10 nM PD-L1, 1 nM europium anti-human IgG and 20 nM anti-His-Allophycocyanin. IC50 determination was performed by fitting the curve of percent control activity versus the log of the inhibitor concentration using the GraphPad Prism 5.0 software.

Chain of PD-1/PD-L1 (Q9NZQ7 19-238): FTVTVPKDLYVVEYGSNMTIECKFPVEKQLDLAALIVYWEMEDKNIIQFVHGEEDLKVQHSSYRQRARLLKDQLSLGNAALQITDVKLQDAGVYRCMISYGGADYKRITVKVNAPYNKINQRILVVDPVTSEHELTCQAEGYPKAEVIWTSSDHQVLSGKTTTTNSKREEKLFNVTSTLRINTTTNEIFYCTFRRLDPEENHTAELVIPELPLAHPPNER
Chain of PD-L1 (Q9NZQ7 19-290): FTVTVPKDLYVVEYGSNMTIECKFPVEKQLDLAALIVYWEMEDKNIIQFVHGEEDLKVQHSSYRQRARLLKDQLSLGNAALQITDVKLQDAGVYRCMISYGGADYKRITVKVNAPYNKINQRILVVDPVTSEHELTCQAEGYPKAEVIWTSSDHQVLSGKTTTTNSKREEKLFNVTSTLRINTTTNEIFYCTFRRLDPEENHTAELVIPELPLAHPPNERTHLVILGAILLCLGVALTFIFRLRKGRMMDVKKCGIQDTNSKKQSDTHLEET

For `Cc1c(NC(=O)c2nc3c(n2C)CCN(CCC24CCC(C(=O)O)(CC2)C4)C3)cccc1-c1cccc(Nc2nc(C(F)F)nc3cc(CN4CC[C@](C)(O)C4)cnc23)c1C` [Example 16, (S)-4-(2-(2-((3′-((2-(difluoromethyl)-7-((3-hydroxy-3-methylpyrrolidin-1-yl)methyl)pyrido[3,2-d]pyrimidin-4-yl)amino)-2,2′-dimethyl-[1,1′-biphenyl]-3-yl)carbamoyl)-1-methyl-1,4,6,7-tetrahydro-5H-imidazo[4,5-c]pyridin-5-yl)ethyl)bicyclo[2.2.1]heptane-1-carboxylic Acid], the IC50 in assay [1] stood at 2.4 nM; on PD-L1 it was 53 nM; at PD-1/PD-L1 it was 1.7 nM. Moreover, the response in assay [2] was half-maximal at 6 nM (EC50).

As to `Cc1c(Nc2nc(C(F)F)nc3cc(CN4CCCC4)cnc23)cccc1-c1cccc(NC(=O)c2nc3c(n2C)CCN(CCC24CCC(C(=O)O)(CC2)C4)C3)c1Cl` [Example 7, 4-(2-(2-((2-chloro-3′-((2-(difluoromethyl)-7-(pyrrolidin-1-ylmethyl)pyrido[3,2-d]pyrimidin-4-yl)amino)-2′-methyl-[1,1′-biphenyl]-3-yl)carbamoyl)-1-methyl-1,4,6,7-tetrahydro-5H-imidazo[4,5-c]pyridin-5-yl)ethyl)bicyclo[2.2.1]heptane-1-carboxylic Acid], the IC50 is 2.2 nM in assay [1], 16 nM against PD-L1 and 1.5 nM on PD-1/PD-L1. In addition, the EC50 in assay [2] is 4 nM.

For the molecule `CCN1CCc2c(nc(C(=O)Nc3cccc(-c4cccc(NC(=O)c5nc6c(n5C)CCN(CC57CCC(C(=O)O)(CC5)C7)C6)c4Cl)c3Cl)n2C)C1` [Example 176, reference compound], the IC50 worked out at 17 nM in assay [1], 732 nM on PD-L1 and 2.9 nM on PD-1/PD-L1. This molecule gave an EC50 in assay [2] of 122 nM.

As for `Cc1c(Nc2nc(C(F)F)nc3cc(CN4CC[C@](C)(O)C4)cnc23)cccc1-c1cccc(NC(=O)c2nc3c(n2C)CCN(CCC24CCC(C(=O)O)(CC2)C4)C3)c1Cl` [Example 4, (S)-4-(2-(2-((2-chloro-3′-((2-(difluoromethyl)-7-((3-hydroxy-3-methylpyrrolidin-1-yl)methyl)pyrido[3,2-d]pyrimidin-4-yl)amino)-2′-methyl-[1,1′-biphenyl]-3-yl)carbamoyl)-1-methyl-1,4,6,7-tetrahydro-5H-imidazo[4,5-c]pyridin-5-yl)ethyl)bicyclo[2.2.1]heptane-1-carboxylic Acid], the IC50 in assay [1] amounted to 3.5 nM; against PD-L1, 17 nM; at PD-1/PD-L1, 1.9 nM. Moreover, the midpoint of the response in assay [2], the EC50, lay at 4 nM.

As to `Cc1c(Nc2nc(C(F)F)nc3cc(CN4CC(O)C4)cnc23)cccc1-c1cccc(NC(=O)c2nc3c(n2C)CCN(CCC24CCC(C(=O)O)(CC2)C4)C3)c1Cl` [Example 13, 4-(2-(2-((2-chloro-3′-((2-(difluoromethyl)-7-((3-hydroxyazetidine-1-yl)methyl)pyrido[3,2-d]pyrimidin-4-yl)amino)-2′-methyl-[1,1′-biphenyl]-3-yl)carbamoyl)-1-methyl-1,4,6,7-tetrahydro-5H-imidazo[4,5-c]pyridin-5-yl)ethyl)bicyclo[2.2.1]heptane-1-carboxylic Acid], the IC50 in assay [1] is 3 nM; against PD-L1 it was 24 nM; on PD-1/PD-L1, 1.8 nM. This molecule also returned an EC50 in assay [2] of 3 nM.

As for `C[C@@H](O)CN1CCc2c(nc(C(=O)Nc3cccc(-c4cccc(NC(=O)c5nc6c(n5C)CCN(CC57CCC(C(=O)O)(CC5)C7)C6)c4Cl)c3Cl)n2C)C1` [Example 182, reference compound], the 50% inhibitory concentration (IC50) in assay [1] was found to be 4.4 nM; on PD-L1 it was 92 nM; on PD-1/PD-L1, 1.7 nM. In addition, in assay [2], a half-maximal effect (EC50) was put at 30 nM.

As for `Cc1c(NC(=O)c2nc3c(n2C)CCN(CCC24CCC(C(=O)O)(CC2)C4)C3)cccc1-c1cccc(Nc2nc(C(F)F)nc3cc(CN4CC[C@H](O)C4)cnc23)c1C` [Example 15, (S)-4-(2-(2-((3′-((2-(difluoromethyl)-7-((3-hydroxypyrrolidin-1-yl)methyl)pyrido[3,2-d]pyrimidin-4-yl)amino)-2,2′-dimethyl-[1,1′-biphenyl]-3-yl)carbamoyl)-1-methyl-1,4,6,7-tetrahydro-5H-imidazo[4,5-c]pyridin-5-yl)ethyl)bicyclo[2.2.1]heptane-1-carboxylic Acid], the values for the IC50 (in assay [1]; at PD-L1; at PD-1/PD-L1) were 2.9 nM, 57 nM and 1.5 nM, respectively. The same molecule showed an EC50 in assay [2] of 9 nM.

With `Cn1c(C(=O)Nc2cccc(-c3cccc(NC(=O)c4nc5c(n4C)CCN(C4CCC(O)CC4)C5)c3Cl)c2Cl)nc2c1CCN(CC13CCC(C(=O)O)(CC1)C3)C2` (stereo not drawn) [Example 183, reference compound], the IC50 in assay [1] was 5.6 nM; at PD-L1 it was 49 nM; on PD-1/PD-L1, 1.8 nM. For the same molecule, the EC50 in assay [2] worked out at 18 nM.

`Cn1c(C(=O)Nc2cccc(-c3cccc(NC(=O)c4nc5c(n4C)CCN(C4CCC4)C5)c3Cl)c2Cl)nc2c1CCN(CC13CCC(C(=O)O)(CC1)C3)C2` [Example 178, reference compound]: the figures for the IC50 (in assay [1]; against PD-L1; on PD-1/PD-L1) were 13 nM, 587 nM and 1.9 nM, respectively. The molecule further gave an EC50 in assay [2] of 82 nM.

The record behind these values is patent US11401279B2, “Pyrido[3,2-d]pyrimidine compounds as immunomodulators” (Incyte Corporation, priority 2019, dated 2022).
